Experiment [1] addresses T1, Signal recognition particle receptor subunit alpha (Homo sapiens, UniProt P08240).
T1 sequence (P08240 whole entry): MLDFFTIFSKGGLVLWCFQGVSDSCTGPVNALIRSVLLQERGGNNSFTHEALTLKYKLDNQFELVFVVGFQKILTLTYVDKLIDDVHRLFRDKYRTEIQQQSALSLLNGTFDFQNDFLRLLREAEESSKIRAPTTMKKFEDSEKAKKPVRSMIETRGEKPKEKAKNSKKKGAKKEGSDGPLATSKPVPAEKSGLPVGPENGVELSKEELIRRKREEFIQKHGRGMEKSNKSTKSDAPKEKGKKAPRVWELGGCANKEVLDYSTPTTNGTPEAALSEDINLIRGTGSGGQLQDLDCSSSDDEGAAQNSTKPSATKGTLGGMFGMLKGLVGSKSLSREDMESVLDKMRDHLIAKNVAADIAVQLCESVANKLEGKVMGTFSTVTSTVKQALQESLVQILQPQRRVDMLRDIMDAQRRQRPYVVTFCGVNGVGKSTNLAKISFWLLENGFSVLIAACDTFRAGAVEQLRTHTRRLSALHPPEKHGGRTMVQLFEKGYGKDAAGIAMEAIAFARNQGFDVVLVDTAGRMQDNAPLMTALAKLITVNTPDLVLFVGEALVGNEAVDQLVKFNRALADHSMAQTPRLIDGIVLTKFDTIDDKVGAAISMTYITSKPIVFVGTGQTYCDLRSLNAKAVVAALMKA

Another experiment addresses TGF-beta receptor type-2 (Homo sapiens, UniProt P37173).
Experiment [2] addresses T2, Serine/threonine-protein kinase TAO2 (Homo sapiens, UniProt Q9UL54).
T2 sequence (Q9UL54 whole entry): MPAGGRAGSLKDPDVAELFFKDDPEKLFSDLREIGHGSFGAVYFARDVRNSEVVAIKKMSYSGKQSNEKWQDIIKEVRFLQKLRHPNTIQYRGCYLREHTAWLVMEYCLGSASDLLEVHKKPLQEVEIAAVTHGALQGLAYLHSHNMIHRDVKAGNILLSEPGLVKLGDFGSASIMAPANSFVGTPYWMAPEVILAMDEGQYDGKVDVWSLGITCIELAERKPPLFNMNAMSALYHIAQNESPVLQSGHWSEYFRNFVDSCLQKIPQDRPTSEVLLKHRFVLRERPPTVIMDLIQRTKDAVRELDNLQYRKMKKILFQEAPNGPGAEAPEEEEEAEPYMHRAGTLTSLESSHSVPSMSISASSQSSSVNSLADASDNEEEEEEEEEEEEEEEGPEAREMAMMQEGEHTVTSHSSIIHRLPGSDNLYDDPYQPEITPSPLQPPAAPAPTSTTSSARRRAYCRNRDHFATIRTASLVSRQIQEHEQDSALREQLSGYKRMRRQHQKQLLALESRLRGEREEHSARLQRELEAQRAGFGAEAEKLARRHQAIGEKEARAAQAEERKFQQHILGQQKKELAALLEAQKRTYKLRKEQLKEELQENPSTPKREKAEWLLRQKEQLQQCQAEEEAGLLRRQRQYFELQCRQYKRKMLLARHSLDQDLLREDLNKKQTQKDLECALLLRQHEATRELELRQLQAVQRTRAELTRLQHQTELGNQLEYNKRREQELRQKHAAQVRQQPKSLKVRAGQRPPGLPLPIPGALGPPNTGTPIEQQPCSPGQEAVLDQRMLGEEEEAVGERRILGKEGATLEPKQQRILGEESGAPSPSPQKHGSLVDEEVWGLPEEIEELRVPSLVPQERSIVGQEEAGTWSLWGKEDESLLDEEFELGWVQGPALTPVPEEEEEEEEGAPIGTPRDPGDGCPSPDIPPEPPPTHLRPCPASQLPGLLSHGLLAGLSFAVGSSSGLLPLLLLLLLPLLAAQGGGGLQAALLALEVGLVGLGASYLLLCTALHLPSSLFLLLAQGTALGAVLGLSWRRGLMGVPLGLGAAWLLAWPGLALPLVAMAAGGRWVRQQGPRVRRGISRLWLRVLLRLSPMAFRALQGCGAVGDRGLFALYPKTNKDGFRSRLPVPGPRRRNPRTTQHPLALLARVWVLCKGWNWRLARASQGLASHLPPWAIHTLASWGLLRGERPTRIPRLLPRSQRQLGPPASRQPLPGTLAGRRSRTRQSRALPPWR

The target of experiment [3] is MAP kinase-activated protein kinase 2 (Homo sapiens, UniProt P49137).
MAP kinase-activated protein kinase 2, sequence (P49137 whole entry): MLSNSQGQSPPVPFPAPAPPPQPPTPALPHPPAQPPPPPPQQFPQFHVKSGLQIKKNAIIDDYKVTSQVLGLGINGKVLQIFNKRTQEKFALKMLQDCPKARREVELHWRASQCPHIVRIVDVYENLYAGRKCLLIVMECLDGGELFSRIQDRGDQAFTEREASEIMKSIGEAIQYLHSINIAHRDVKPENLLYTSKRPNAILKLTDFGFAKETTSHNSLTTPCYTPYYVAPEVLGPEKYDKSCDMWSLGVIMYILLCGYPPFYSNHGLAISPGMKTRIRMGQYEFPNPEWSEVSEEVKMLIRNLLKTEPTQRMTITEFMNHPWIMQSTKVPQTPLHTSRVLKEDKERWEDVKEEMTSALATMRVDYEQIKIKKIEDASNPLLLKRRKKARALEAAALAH
Experiment [4] addresses T3, Calcium/calmodulin-dependent protein kinase type IV (Homo sapiens, UniProt Q16566).
T3 sequence (Q16566 whole entry): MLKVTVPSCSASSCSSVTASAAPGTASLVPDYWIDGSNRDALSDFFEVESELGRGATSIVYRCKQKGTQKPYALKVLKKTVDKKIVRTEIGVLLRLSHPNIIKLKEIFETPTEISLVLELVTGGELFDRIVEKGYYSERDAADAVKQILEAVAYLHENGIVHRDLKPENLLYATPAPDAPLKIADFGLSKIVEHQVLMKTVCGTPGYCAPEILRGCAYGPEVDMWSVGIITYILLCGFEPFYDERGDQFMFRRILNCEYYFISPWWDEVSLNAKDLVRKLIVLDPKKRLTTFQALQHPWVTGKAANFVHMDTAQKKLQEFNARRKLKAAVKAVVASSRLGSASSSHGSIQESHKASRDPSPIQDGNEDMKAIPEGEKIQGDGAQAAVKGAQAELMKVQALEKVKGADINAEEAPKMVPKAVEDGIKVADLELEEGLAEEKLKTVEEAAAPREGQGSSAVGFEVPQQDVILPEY

Experiment [5] addresses Tyrosine-protein kinase FRK (Homo sapiens, UniProt P42685).
In experiment [6] the target is T4, Bifunctional phosphoribosylaminoimidazole carboxylase/phosphoribosylaminoimidazole succinocarboxamide synthetase (Homo sapiens, UniProt P22234).
T4 sequence (P22234 whole entry): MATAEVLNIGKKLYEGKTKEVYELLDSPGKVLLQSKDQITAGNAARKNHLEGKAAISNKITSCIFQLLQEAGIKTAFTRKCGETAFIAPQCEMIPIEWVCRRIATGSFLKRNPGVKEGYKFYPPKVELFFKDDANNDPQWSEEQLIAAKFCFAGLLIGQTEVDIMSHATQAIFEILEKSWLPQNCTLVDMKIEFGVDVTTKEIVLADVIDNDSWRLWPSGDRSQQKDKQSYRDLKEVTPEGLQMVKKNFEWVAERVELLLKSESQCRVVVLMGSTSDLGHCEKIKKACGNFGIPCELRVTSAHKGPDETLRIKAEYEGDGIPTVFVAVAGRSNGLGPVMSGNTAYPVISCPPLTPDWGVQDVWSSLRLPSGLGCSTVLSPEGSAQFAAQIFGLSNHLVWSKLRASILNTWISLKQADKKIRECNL

Calls of active or inactive are those of the source. For most assays here, no stated cut-off is given here; in the data, actives have a measured Kd and inactives only a lower limit. Where only a bound is given, the exact number is not on record here.

TGF-beta receptor type-2, sequence (P37173 whole entry): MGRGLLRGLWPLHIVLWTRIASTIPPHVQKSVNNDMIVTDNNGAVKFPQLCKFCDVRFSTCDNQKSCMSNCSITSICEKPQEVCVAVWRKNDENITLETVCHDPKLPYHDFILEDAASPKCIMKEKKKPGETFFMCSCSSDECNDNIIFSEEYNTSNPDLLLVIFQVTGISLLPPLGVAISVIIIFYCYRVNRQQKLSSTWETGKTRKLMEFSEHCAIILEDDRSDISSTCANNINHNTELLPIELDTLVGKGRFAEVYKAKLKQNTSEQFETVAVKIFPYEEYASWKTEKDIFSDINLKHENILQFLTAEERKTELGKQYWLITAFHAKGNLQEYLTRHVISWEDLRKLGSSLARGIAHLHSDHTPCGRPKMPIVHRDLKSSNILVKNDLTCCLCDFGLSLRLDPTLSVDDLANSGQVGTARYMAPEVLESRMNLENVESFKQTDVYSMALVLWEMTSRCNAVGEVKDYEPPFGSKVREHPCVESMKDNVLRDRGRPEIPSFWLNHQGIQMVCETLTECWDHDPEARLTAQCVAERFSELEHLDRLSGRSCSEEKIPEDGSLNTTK
Tyrosine-protein kinase FRK, sequence (P42685 whole entry): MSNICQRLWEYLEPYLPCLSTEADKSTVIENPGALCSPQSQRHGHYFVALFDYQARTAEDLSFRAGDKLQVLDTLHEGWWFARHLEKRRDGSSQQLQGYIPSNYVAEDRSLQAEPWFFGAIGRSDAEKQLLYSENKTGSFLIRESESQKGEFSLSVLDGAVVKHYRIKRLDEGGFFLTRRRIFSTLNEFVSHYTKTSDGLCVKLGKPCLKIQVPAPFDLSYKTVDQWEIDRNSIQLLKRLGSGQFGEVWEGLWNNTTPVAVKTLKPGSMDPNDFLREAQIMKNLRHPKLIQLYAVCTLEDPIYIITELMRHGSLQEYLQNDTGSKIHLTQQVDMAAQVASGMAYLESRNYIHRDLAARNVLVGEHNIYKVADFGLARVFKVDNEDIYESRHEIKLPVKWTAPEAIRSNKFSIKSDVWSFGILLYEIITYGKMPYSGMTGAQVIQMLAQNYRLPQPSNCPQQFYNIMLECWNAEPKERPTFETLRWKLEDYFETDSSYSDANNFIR

On to `COc1cc(Nc2ncc(F)c(Nc3ccc4c(n3)N(COP(=O)(O)O)C(=O)C(C)(C)O4)n2)cc(OC)c1OC` [FOSTAMATINIB], for which the Kd (in experiment [1]; at TGF-beta receptor type-2; in experiment [2]; in experiment [3]; in experiment [4]; in experiment [5]) was > 30 µM (inactive) throughout. Moreover, in experiment [6], the Kd is > 30 µM (inactive).

Take `COc1cccc2cc(-c3nc([C@H]4CC[C@H](C(=O)O)CC4)n4ncnc(N)c34)[nH]c12` [OSI-027]: the Kd (in experiment [1]; at TGF-beta receptor type-2; in experiment [2]; in experiment [3]; in experiment [4]; in experiment [5]) was > 30 µM (inactive) each time. Moreover, the Kd in experiment [6] is > 30 µM (inactive).

As for `COc1ccc2c(OCc3nnc4ccc(-c5ccccc5)nn34)ccnc2c1` [AMG-208], the Kd (in experiment [1]; at TGF-beta receptor type-2; in experiment [2]; in experiment [3]; in experiment [4]; in experiment [5]) was > 30 µM (inactive) in each case. Also, in experiment [6], the Kd was > 30 µM (inactive).

Take `COc1cc2ncnc(Nc3ccc(F)c(Cl)c3)c2cc1NC(=O)/C=C/CN1CCCCC1` [DACOMITINIB ANHYDROUS]: the Kd (in experiment [1]; at TGF-beta receptor type-2; in experiment [2]; in experiment [3]; in experiment [4]; in experiment [5]) was > 30 µM (inactive) in each case. Besides, the Kd in experiment [6] was > 30 µM (inactive).

For the compound `CC[C@@](C)(Nc1ccnc(-c2c[nH]c3ncccc23)n1)C(=O)NCC(F)(F)F` [DECERNOTINIB], the Kd (in experiment [1]; at TGF-beta receptor type-2; in experiment [2]; in experiment [3]; in experiment [4]; in experiment [5]) was > 30 µM (inactive) in each case. For the same compound, the Kd in experiment [6] was > 30 µM (inactive).

As to `O=C(NOC[C@H](O)CO)c1ccc(F)c(F)c1Nc1ccc(I)cc1F` [MIRDAMETINIB], the Kd (in experiment [1]; at TGF-beta receptor type-2; in experiment [2]; in experiment [3]; in experiment [4]; in experiment [5]) was > 30 µM (inactive) throughout. The Kd in experiment [6] was > 30 µM (inactive).

`COc1cc2nccc(Oc3ccc(NC(=O)C4(C(=O)Nc5ccc(F)cc5)CC4)cc3)c2cc1OC` [CABOZANTINIB]: the Kd in experiment [1] is > 30 µM (inactive); at TGF-beta receptor type-2, > 30 µM (inactive); in experiment [2], > 30 µM (inactive); in experiment [3], > 30 µM (inactive); in experiment [4], > 30 µM (inactive); in experiment [5], 0.56 µM (active). In addition, in experiment [6], the Kd was > 30 µM (inactive).

The values are drawn from ChEMBL document CHEMBL3991601, “The target landscape of clinical kinase drugs” (Science, 2017).
